The record followed here is patent US9428452B2, “Compounds” (Glaxo Group Limited, priority 2012, dated 2016).

Marks after values point to notes of the source that are not given here.

What all share (type): cell-based
One assay relates to IL-22 mRNA expression. In words: Ex-vivo human skin model, IL-22 mRNA expression. The settings on record: for Percentage of inhibition of IL-22 mRNA expression: Th17 cytokine cocktail 24 h, RT-PCR.
Assay [1] has as its system IL-17A secreted from antiCD3/CD28 stimulated Peripheral Blood Mononuclear cells (PBMC). The assay can be described thus: Peripheral Blood Mononucleocyte Cell Assay (PBMC Assay - IL-17). The settings on record: Homo sapiens, 48 h, IL-17A release, read-out: mean pIC50 (converted). The protocol: Peripheral Blood Mononucleocvte Cell Assay (PBMC Assay—IL-17) […]
This assay is designed to measure levels of IL-17A secreted from antiCD3/CD28 stimulated frozen Peripheral Blood Mononuclear cells (PBMC) isolated from human blood with the aim of identifying inhibitors of IL-17A release.
2. The compounds for screening are dispensed into a master plate at 10 mM top concentration which are serially diluted 1:3 across 11 points in DMSO, then 500 nL is transferred into a 384-well flat-bottomed Greiner plate to which 50 uL of cell suspension is added: for the single shot screening the highest concentration of compound is 10^−5M; for 11 point full curve dose response studies the highest concentration is 10^−4 M.
As a low control, DMSO (as supplied, for example, by VWR) (final concentration 1%) in column 6 (16 points).
As a high control, 5-(4-fluorophenyl)-2-ureidothiophene-3-carboxamide (obtainable from, for example, Sigma) at a final concentration of 10^−4 M in DMSO should be used in column 18 (16 points).
9. Make the cell suspension at the concentration 8×10^5 cells/mL to give a final number of 40,000 cells/well.
1. Add well mixed CD3/CD28 Dynabeads (as supplied, for example, by Dynal) to achieve ratio bead:cell=2:1 (ie. a dilution of 1 in 20). Mix thoroughly.
2. Dispense the suspension into the 384 Assay Plates using Multidrop (50 uL per well). If the volume of cell suspension is large, mix the suspension after dispensing into every other plate.
3. Cover the plates with the lids and place them to the humidified incubator (37° C., 5% CO2) for 48 hours.
1. Transfer 10 uL of supernatants from assay plates to the MSD plates using Cybiwell. Ensure that all wells are covered with the solution. Tap the plate gently, if some of the wells are not covered with the supernatant.
3. Add 10 uL of MSD IL-17 detecting antibody using multidrop (1 ug/mL in D-PBS without Ca^2+ and Mg^2+ (supplied, for example, by Gibco)).
4. Cover the plates with adhesive foil and incubated with shaking for 3 hours at room temperature
7. Add 35 uL of MSD Read Buffer T×2 using multidrop.
8. Read plates on MSD MA6000 reader using the 384 well plate protocol as per manufacturer's instructions.

The subject of another assay is IL-17A mRNA expression. In words: Ex-vivo human skin model, IL-17A mRNA expression. The settings on record: for Percentage of inhibition of IL-17A mRNA expression: Th17 cytokine cocktail 24 h, RT-PCR.
The next assay deals with IL-17F mRNA expression. In words: Ex-vivo human skin model, IL-17F mRNA expression. The settings on record: for Percentage of inhibition of IL-17F mRNA expression: Th17 cytokine cocktail 24 h, RT-PCR.
Setting [2] is: four different donors, compound 10 μM.

For the compound `CCc1ccc(N(CC(C)C)S(=O)(=O)c2ccc([C@@H](O)CN3CCOCC3)c(CO)c2)cc1` [Example E126, N-(4-ethylphenyl)-4-(1-hydroxy-2-morpholinoethyl)-3-(hydroxymethyl)-N-isobutylbenzenesulfonamide], the “Percentage of inhibition of IL-22 mRNA expression” value in the assay on IL-22 mRNA expression (Skin Donor 1, compound 10 μM) was found to be 67% *; with IL-22 mRNA expression (Skin Donor 2, compound 10 μM), 58%; in the assay on IL-22 mRNA expression (Skin Donor 3, compound 10 μM), 60%; in the assay with IL-22 mRNA expression (Skin Donor 4, compound 10 μM), 58% *. Moreover, the “gene transcription of il22 (result in words)” value with IL-22 mRNA expression (setting [2]) is given as “inhibited”. Also, the IC50 in assay [1] was 794 nM. Also, the “Percentage of inhibition of IL-17A mRNA expression” value in the assay with IL-17A mRNA expression (Skin Donor 1, compound 10 μM) is 76% *; in the assay with IL-17A mRNA expression (Skin Donor 2, compound 10 μM) it was 93% *; with IL-17A mRNA expression (Skin Donor 3, compound 10 μM), 60% *; with IL-17A mRNA expression (Skin Donor 4, compound 10 μM) it was 85% *. For the same compound, in the assay on IL-17A mRNA expression (setting [2]), the “gene transcription of il17a (result in words)” value was “inhibited”. The “Percentage of inhibition of IL-17F mRNA expression” value was determined as 67% * in the assay on IL-17F mRNA expression (Skin Donor 1, compound 10 μM); 89% * with IL-17F mRNA expression (Skin Donor 2, compound 10 μM); 67% * in the assay on IL-17F mRNA expression (Skin Donor 3, compound 10 μM); 74% * in the assay on IL-17F mRNA expression (Skin Donor 4, compound 10 μM). The “gene transcription of il17f (result in words)” value in the assay with IL-17F mRNA expression (setting [2]) is “inhibited”.
